Measurements taken from Sander's compilation of Henry's law constants (doi:10.1093/jnci/56.6.1125).

Test: Henry solubility constant Hcp at 310 K (mol/(m3 Pa))
Details: reference: Mirvish et al. (1976)

## CN(N=O)C(N)=O [methylnitrosourea]
  Henry solubility constant Hcp at 310 K: > 190

## CCN(C#N)N=O [ethylnitrosocyanamide]
  Henry solubility constant Hcp at 310 K: 0.26

## CC(C)N(N=O)C(C)C [N-(1-methylethyl)-N-nitroso-2-propanamine]
  Henry solubility constant Hcp at 310 K: 1.2

## CN(C)N=O [N-nitrosodimethylamine]
  Henry solubility constant Hcp at 310 K: 5.2

## CC(=O)N(C)N=O [methylnitrosoacetamide]
  Henry solubility constant Hcp at 310 K: 0.086

## O=NN1CCCCCC1 [nitrosohexamethyleneimine]
  Henry solubility constant Hcp at 310 K: 43

## CCN(CC)N=O [N-nitrosodiethylamine]
  Henry solubility constant Hcp at 310 K: 1.4

## CCCCN(CCCC)N=O [N-nitrosodi-N-butylamine]
  Henry solubility constant Hcp at 310 K: 0.72

## CCCCN(C)N=O [methylbutylnitrosamine]
  Henry solubility constant Hcp at 310 K: 1.7

## O=NN1CCCCC1 [N-nitrosopiperidine]
  Henry solubility constant Hcp at 310 K: 11

## CN(Cc1ccccc1)N=O [N-methyl-N-nitrosobenzenemethanamine]
  Henry solubility constant Hcp at 310 K: 0.79

## CC1CN(N=O)CC(C)N1N=O (stereo not given) [2,6-dimethyldinitrosopiperazine]
  Henry solubility constant Hcp at 310 K: > 190

## CCCN(CCC)N=O [N-nitrosodipropylamine]
  Henry solubility constant Hcp at 310 K: 1.8

## CCCCCN(C)N=O [methylpentylnitrosamine]
  Henry solubility constant Hcp at 310 K: 2

## CCOC(=O)N(C)N=O [N-nitroso-N-methylurethane]
  Henry solubility constant Hcp at 310 K: 0.39

## O=NN1CCOCC1 [4-nitrosomorpholine]
  Henry solubility constant Hcp at 310 K: 390

## CCCCN(CC)N=O [ethylbutylnitrosamine]
  Henry solubility constant Hcp at 310 K: 0.99

## CC1CN(N=O)CC(C)O1 (stereo not given) [2,6-dimethylnitrosomorpholine]
  Henry solubility constant Hcp at 310 K: 35

## O=NN1CCC1 [nitrosoazetidine]
  Henry solubility constant Hcp at 310 K: > 190

## O=NN1CCN(N=O)CC1 [dinitrosopiperazine]
  Henry solubility constant Hcp at 310 K: > 190
